# Values joined by “and” are separate entries in the source; they are usually repeats but may differ in a detail not shown here. Equal entries are not always repeated.
# Columns and labels:
# [1] = system: eotaxin-3 release; experiment: Human whole blood eotaxin-3 assay (IL-4 stimulated); type: cell-based; details: human whole blood, IL-4 0.4 nM, 48 hours; geometric mean; given for compounds with >80% Emax; read-out: Eotaxin-3 EC50
# Summary of the method: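 Human whole blood was preincubated with compound for 120 min at 37 °C, then stimulated with recombinant human IL-4 (E. coli) at 0.4 nM final for 48 h. Inhibition of eotaxin-3 release gave EC50 values.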
# [2] = target: STAT6 (Homo sapiens (Human), UniProt P42226); experiment: STAT6 degrader assay (HiBiT, HeLa LgBiT clone 4.14); type: cell-based; details: HeLa LgBiT clone 4.14, 4-24 h; for DC50: geometric mean, given for compounds with >80% Emax, read-out: STAT6 degradation DC50
# Summary of the method: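 DC50 (nM) comes from luminescence of non-degraded STAT6 read 0.5 h after Nano-GLO addition, following 4-24 h compound exposure at 37° C. Cells were HeLa clone 4.14 expressing LgBiT with a CRISPR HiBiT tag on endogenous STAT6; 50 μM terfenadine set full degradation.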
# Chain of STAT6 (P42226 whole entry): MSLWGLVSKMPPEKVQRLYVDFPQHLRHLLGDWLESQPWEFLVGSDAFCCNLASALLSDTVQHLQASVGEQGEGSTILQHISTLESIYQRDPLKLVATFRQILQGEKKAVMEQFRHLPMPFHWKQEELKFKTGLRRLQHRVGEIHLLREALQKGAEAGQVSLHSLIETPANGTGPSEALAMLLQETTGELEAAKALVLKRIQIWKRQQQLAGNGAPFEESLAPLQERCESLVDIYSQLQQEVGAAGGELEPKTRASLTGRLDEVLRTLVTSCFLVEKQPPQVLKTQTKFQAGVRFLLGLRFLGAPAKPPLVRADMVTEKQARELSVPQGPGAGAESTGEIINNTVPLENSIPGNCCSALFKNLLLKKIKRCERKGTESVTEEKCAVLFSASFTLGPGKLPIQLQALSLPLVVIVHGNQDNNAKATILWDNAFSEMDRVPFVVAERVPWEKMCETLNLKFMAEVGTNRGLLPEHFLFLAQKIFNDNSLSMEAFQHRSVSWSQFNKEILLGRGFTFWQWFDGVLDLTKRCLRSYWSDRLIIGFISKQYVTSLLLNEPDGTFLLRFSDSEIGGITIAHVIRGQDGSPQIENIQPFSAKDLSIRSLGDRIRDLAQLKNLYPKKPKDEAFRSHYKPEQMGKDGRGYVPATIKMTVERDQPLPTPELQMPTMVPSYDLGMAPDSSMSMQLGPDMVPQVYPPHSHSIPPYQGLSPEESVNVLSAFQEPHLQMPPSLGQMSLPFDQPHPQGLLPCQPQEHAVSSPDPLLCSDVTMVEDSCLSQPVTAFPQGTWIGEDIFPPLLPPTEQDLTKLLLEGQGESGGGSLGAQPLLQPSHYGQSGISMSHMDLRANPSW
SMILES,EC50 [1],DC50 [2],Emax ([2]; read-out: STAT6 degradation Emax (%))
"C[C@H]1CN(Cc2ccc3c(c2)n(C)c(=O)n3[C@H]2CCC(=O)NC2=O)CCN1CC1CCN(C(=O)c2ccc(C3CCN(Cc4cc5c(-c6ccc(N)nc6)ccnc5n4C)CC3)cc2)CC1 (single isomer, unassigned) [Example 3e19]",20.9 nM,0.7 nM,–
"C[C@H]1CN(Cc2ccc3c(c2)n(C)c(=O)n3C2CCC(=O)NC2=O)CCN1CC1CCN(C(=O)c2ccc(C3CCN([C@@H](C)c4cc5c(-c6ccc(N)cn6)ccnc5n4C)CC3)cc2)CC1 (stereo partly drawn) [Example 3e56, 3-(5-(((S)-4-((1-(4-(1-((S)-1-(4-(5-aminopyridin-2-yl)-1-methyl-1H-pyrrolo[2,3-b]pyridin-2-yl)ethyl)piperidin-4-yl)benzoyl)piperidin-4-yl)methyl)-3-methylpiperazin-1-yl)methyl)-3-methyl-2-oxo-2,3-dihydro-1H-benzo[d]imidazol-1-yl)piperidine-2,6-dione]",2.6 nM,0.4 nM,–
"C[C@H]1CN(Cc2ccc3c(c2)n(C2CC2)c(=O)n3C2CCC(=O)NC2=O)CCN1CC1CCN(C(=O)c2ccc(C3CCN(Cc4cc5c(-c6ccc(N)nc6)ccnc5n4C)CC3)cc2)CC1 (stereo partly drawn) [Example 3e13, 3-(5-(((S)-4-((1-(4-(1-((4-(6-aminopyridin-3-yl)-1-methyl-1H-pyrrolo[2,3-b]pyridin-2-yl)methyl)piperidin-4-yl)benzoyl)piperidin-4-yl)methyl)-3-methylpiperazin-1-yl)methyl)-3-cyclopropyl-2-oxo-2,3-dihydro-1H-benzo[d]imidazol-1-yl)piperidine-2,6-dione]",37.6 nM,0.9 nM and 1.1 nM,–
"C[C@H]1CN(Cc2ccc3c(c2)C2(CCC2)C(=O)N3C2CCC(=O)NC2=O)CCN1CC1CCN(C(=O)c2ccc(C3CCN([C@@H](C)c4cc5c(-c6ccc(N)nc6)ccnc5n4C)CC3)cc2)CC1 (stereo partly drawn) [Example 3h48, 3-(5′-(((S)-4-((1-(4-(1-((S)-1-(4-(6-aminopyridin-3-yl)-1-methyl-1H-pyrrolo[2,3-b]pyridin-2-yl)ethyl)piperidin-4-yl)benzoyl)piperidin-4-yl)methyl)-3-methylpiperazin-1-yl)methyl)-2′-oxospiro-[cyclobutane-1,3′-indolin]-1′-yl)piperidine-2,6-dione]",13.2 nM,3 nM,–
"C[C@H]1CN(Cc2cc3c(cc2F)n([C@@H]2CCC(=O)NC2=O)c(=O)n3C2CC2)CCN1CC1CCN(C(=O)c2ccc(C3CCN([C@@H](C)c4cc5c(-c6ccc(N)nc6)ccnc5n4C)CC3)cc2)CC1 (single isomer, unassigned) [Example 3e61]",3.5 nM,1.4 nM,–
"COCc1nc2cc(-c3ccnc4c3cc(CN3CCC(c5ccc(C(=O)N6CCC(CN7CCN(Cc8ccc9c(c8)n(C)c(=O)n9C8CCC(=O)NC8=O)CC7)CC6)cc5)CC3)n4C)ccc2[nH]1 (centres unmarked) [Example 3e3, 3-(5-((4-((1-(4-(1-((4-(2-(methoxymethyl)-1H-benzo[d]imidazol-5-yl)-1-methyl-1H-pyrrolo[2,3-b]pyridin-2-yl)methyl)piperidin-4-yl)benzoyl)piperidin-4-yl)methyl)piperazin-1-yl)methyl)-3-methyl-2-oxo-2,3-dihydro-1H-benzo[d]imidazol-1-yl)piperidine-2,6-dione]",14.4 nM,0.8 nM,–
"C[C@@H](c1cc2c(-c3ccc(N)nc3)ccnc2n1C)N1CCC(c2ccc(C(=O)N3CCC(CC4CCN(c5ccc6c(c5)C5(CC5)C(=O)N6C5CCC(=O)NC5=O)CC4)CC3)cc2)CC1 (stereo partly drawn) [Example 3h13, 3-(5′-(4-((1-(4-(1-((S)-1-(4-(6-aminopyridin-3-yl)-1-methyl-1H-pyrrolo[2,3-b]pyridin-2-yl)ethyl)piperidin-4-yl)benzoyl)piperidin-4-yl)methyl)piperidin-1-yl)-2′-oxospiro[cyclopropane-1,3′-indolin]-1′-yl)piperidine-2,6-dione]",23.2 nM,48.7 nM,–
"C[C@@H](c1cc2c(-c3ccc(N)nc3)ccnc2n1C)N1CCC(c2ccc(C(=O)N3CCC(CN4CCN(Cc5ccc6c(c5)n(CCO)c(=O)n6C5CCC(=O)NC5=O)CC4)CC3)cc2)CC1 (stereo partly drawn) [Example 3e36, 3-(5-((4-((1-(4-(1-((S)-1-(4-(6-aminopyridin-3-yl)-1-methyl-1H-pyrrolo[2,3-b]pyridin-2-yl)ethyl)piperidin-4-yl)benzoyl)piperidin-4-yl)methyl)piperazin-1-yl)methyl)-3-(2-hydroxyethyl)-2-oxo-2,3-dihydro-1H-benzo[d]imidazol-1-yl)piperidine-2,6-dione]",23.7 nM,–,70 to 80%
"CNc1ccc(-c2ccnc3c2cc([C@H](C)N2CCC(c4ccc(C(=O)N5CCC(CN6CCN(Cc7ccc8c(c7)n(C7CC7)c(=O)n8C7CCC(=O)NC7=O)C[C@@H]6C)CC5)cc4)CC2)n3C)cn1 (stereo partly drawn) [Example 3h25, 3-(3-cyclopropyl-5-(((S)-3-methyl-4-((1-(4-(1-((S)-1-(1-methyl-4-(6-(methylamino)pyridin-3-yl)-1H-pyrrolo[2,3-b]pyridin-2-yl)ethyl)piperidin-4-yl)benzoyl)piperidin-4-yl)methyl)piperazin-1-yl)methyl)-2-oxo-2,3-dihydro-1H-benzo[d]imidazol-1-yl)piperidine-2,6-dione]",3.4 nM,1.9 nM,–

# Now those with a lower EC50 [1], led by results:
EC50 [1],DC50 [2],Emax ([2]; read-out: STAT6 degradation Emax (%)),SMILES
2.1 nM,0.8 nM,–,"C[C@H]1CN(Cc2ccc3c(c2)n(C)c(=O)n3C2CCC(=O)NC2=O)CCN1CC1(F)CCN(C(=O)c2ccc(C3CCN([C@@H](C)c4cc5c(-c6ccc(N)nc6)ccnc5n4C)CC3)cc2)CC1 (stereo partly drawn) [Example 3e45, 3-(5-(((S)-4-((1-(4-(1-((S)-1-(4-(6-aminopyridin-3-yl)-1-methyl-1H-pyrrolo[2,3-b]pyridin-2-yl)ethyl)piperidin-4-yl)benzoyl)-4-fluoropiperidin-4-yl)methyl)-3-methylpiperazin-1-yl)methyl)-3-methyl-2-oxo-2,3-dihydro-1H-benzo[d]imidazol-1-yl)piperidine-2,6-dione]"
1.9 nM,0.8 nM,–,"C[C@H]1CN(Cc2cc3c(cc2F)n(C2CCC(=O)NC2=O)c(=O)n3C2CC2)CCN1CC1CCN(C(=O)c2ccc(C3CCN([C@@H](C)c4cc5c(-c6ccc(N)nc6)ccnc5n4C)CC3)cc2)CC1 (stereo partly drawn) [Example 3e58, 3-(5-(((S)-4-((1-(4-(1-((S)-1-(4-(6-aminopyridin-3-yl)-1-methyl-1H-pyrrolo[2,3-b]pyridin-2-yl)ethyl)piperidin-4-yl)benzoyl)piperidin-4-yl)methyl)-3-methylpiperazin-1-yl)methyl)-3-cyclopropyl-6-fluoro-2-oxo-2,3-dihydro-1H-benzo[d]imidazol-1-yl)piperidine-2,6-dione]"
1.8 nM,0.4 nM,–,"C[C@H]1CN(Cc2cc3c(cc2F)n(C2CCC(=O)NC2=O)c(=O)n3C)CCN1CC1CCN(C(=O)c2ccc(C3CCN([C@@H](C)c4cc5c(-c6ccc(N)nc6)ccnc5n4C)CC3)cc2)CC1 (mixture of isomers) [Example 3e34, 3-(5-(((S)-4-((1-(4-(1-((S)-1-(4-(6-aminopyridin-3-yl)-1-methyl-1H-pyrrolo[2,3-b]pyridin-2-yl)ethyl)piperidin-4-yl)benzoyl)piperidin-4-yl)methyl)-3-methylpiperazin-1-yl)methyl)-6-fluoro-3-methyl-2-oxo-2,3-dihydro-1H-benzo[d]imidazol-1-yl)piperidine-2,6-dione]"
0.8 nM,0.3 nM,–,"C[C@H]1CN(Cc2ccc3c(c2)n(C)c(=O)n3[C@H]2CCC(=O)NC2=O)CCN1CC1CCN(C(=O)c2ccc(C3CCN([C@@H](C)c4cc5c(-c6ccc(N)nc6)ccnc5n4C)CC3)cc2)CC1 (single isomer, unassigned) [Example 3e46]"

# Source: US20250325677A1, “STAT6 DEGRADERS” (Gilead Sciences, Inc., priority 2024, published 2025)
